Data: patent publication US7605176B2 (Boehringer Ingelheim International GmbH, priority 2004, dated 2009)

Biological target: T1, hMCH-1R (Homo sapiens, UniProt Q99705)
T1 construct: expressed in transfected cells
Test: MCH-1 receptor binding test (125I-MCH binding to membranes of hMCH-1R transfected CHO/Galpha16 cells)
Conditions: competition with 100 pM 125I-MCH, membranes of CHO/Galpha16 cells stably transfected with hMCH-1R
Experimental: Membranes from CHO/Galpha16 cells stably transfected with human hMCH-1R are resuspended using a syringe (needle 0.6×25 mm) and diluted in test buffer (50 mM HEPES, 10 mM MgCl2, 2 mM EGTA, pH 7.00; 0.1% bovine serum albumin (protease-free), 0.021% bacitracin, 1 μg/mL aprotinin, 1 μg/mL leupeptin, and 1 μM phosphoramidone) to a concentration of 5 to 15 μg/mL.
After the incubation the reaction is filtered using a cell harvester through 0.5% PEI treated fiberglass filters (GF/B, Unifilter Packard). The membrane-bound radioactivity retained on the filter is then determined after the addition of scintillator substance (Packard Microscint 20) in a measuring device (TopCount of Packard).
The analysis of the concentration binding curve is carried out on the assumption of one receptor binding site.

T1 sequence (Q99705 whole entry): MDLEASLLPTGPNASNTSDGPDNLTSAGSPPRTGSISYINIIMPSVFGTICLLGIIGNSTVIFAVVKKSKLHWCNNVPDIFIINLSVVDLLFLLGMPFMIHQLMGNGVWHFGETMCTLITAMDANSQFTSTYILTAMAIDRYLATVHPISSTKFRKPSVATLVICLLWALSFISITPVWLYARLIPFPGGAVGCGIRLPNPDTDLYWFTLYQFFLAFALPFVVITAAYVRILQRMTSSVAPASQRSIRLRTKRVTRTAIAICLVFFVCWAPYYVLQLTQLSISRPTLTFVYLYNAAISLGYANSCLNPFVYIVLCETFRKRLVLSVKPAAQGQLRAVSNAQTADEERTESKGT

Row | Compound | IC50
1 | O=C(CC(=O)c1ccc(-c2ccccc2)cc1)NCCc1ccc(CN2CCCC2)cc1 [Example 5.1] | 63.7 nM
2 | CCN(CC)CCOc1ccc(NC(=O)CC(=O)c2ccc(C(F)(F)F)cc2Cl)cc1Cl [Example 7.1] | 34.8 nM

Test system: not given
Test: not given
Conditions: not given

Row | Compound | melting point
3 | CC1CCN(CCOc2ccc(NC(=O)CC(=O)c3ccc(-c4ccccc4)cc3)cc2Cl)CC1 [Example 1, 3-biphenyl-4-yl-N-{3-chloro-4-[2-(4-methylpiperidin-1-yl)ethoxy]phenyl}-3-oxopropionamide] | 135 to 139 °C
4 | COC(=O)c1cc(NC(=O)CC(=O)c2ccc(-c3ccccc3)cc2)ccc1OCCN1CCCC1 [Example 1.9, methyl 5-(3-biphenyl-4-yl-3-oxopropionylamino)-2-(2-pyrrolidin-1-ylethoxy)benzoate] | 131 to 135 °C
5 | O=C(CC(=O)c1ccc(-c2ccccc2)cc1)NCCc1ccc(CN2CCCC2)cc1 [Example 5.1] | 121 to 125 °C
6 | CCN(CC)CCOc1ccc(NC(=O)CC(=O)c2ccc(-c3ccccc3)cc2)cc1Cl [Example 7, 3-biphenyl-4-yl-N-[3-chloro-4-(2-diethylaminoethoxy)phenyl]-3-oxopropionamide] | 148 to 151 °C
7 | O=C(CC(=O)c1ccc(-c2ccccc2)cc1)Nc1ccc(OCCN2CCCC2)c(C(=O)O)c1 [Example 8, 5-(3-biphenyl-4-yl-3-oxopropionylamino)-2-(2-pyrrolidin-1-ylethoxy)benzoic acid] | 236 to 240 °C
